Experimental findings from ChEMBL document CHEMBL1126422, “The preparation of novel dopamine analogues via palladium catalysed cyclisation reactions” (Bioorg Med Chem Lett, 1992) are described below.

The assay addresses D(3) dopamine receptor (Rattus norvegicus, UniProt P19020). Description: Compound was tested for binding affinity at the rat Dopamine receptor D3 expressed in Chinese hamster ovary cells; No significant affinity. The assay is classed as cell-based.

Structures are written as SMILES.

Chain of D(3) dopamine receptor (P19020 whole entry): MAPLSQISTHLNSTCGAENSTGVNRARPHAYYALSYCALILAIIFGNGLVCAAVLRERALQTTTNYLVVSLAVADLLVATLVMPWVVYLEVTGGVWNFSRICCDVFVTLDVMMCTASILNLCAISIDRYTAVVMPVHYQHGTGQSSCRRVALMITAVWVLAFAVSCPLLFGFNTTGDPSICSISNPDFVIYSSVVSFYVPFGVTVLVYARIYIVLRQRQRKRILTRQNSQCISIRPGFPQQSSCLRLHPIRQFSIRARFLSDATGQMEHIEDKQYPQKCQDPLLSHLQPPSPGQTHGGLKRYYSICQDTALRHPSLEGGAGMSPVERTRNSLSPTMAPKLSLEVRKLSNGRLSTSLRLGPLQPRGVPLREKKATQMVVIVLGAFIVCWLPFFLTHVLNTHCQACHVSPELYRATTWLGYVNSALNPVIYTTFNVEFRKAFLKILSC

For `CCCN[C@H]1COc2ccccc2[C@@H]1C.Cl`, the “Log Ki” value is reported as below -6.5. The figure for `C=C1c2ccccc2OC[C@@H]1NCCC.Cl` is above -6.5.
